# Test results: PMC5522996, “Big conductance calcium‐activated potassium channel openers control spasticity without sedation” (British Journal of Pharmacology, 2017)
# pEC50: −log10 of the molar value. Entries after “also recorded” stand apart in the source; their conditions may differ.
# Key:
# Water solubility = format: physicochemical
# rats = assay: Irwin test; format: in vivo, rat
# ETA = molecular target: T1, ETA (Homo sapiens, UniProt P25101); assay: Receptor binding profile of VSN16R; conditions: 10µM VSN16R
# T1 construct: purchased Cerep; Chantest; DiscoveRx; Multispan; MDS Pharma Services
# β1 = molecular target: T2, β1 (Homo sapiens, UniProt P08588); assay: Receptor binding profile of VSN16R; conditions: 10µM VSN16R
# T2 construct: purchased Cerep; Chantest; DiscoveRx; Multispan; MDS Pharma Services
# [1] = tested on: primary porcine aorta endothelium; assay: Patch clamp of primary pig aorta endothelium; format: cell-based
# NK3 = molecular target: T3, NK3 (Homo sapiens, UniProt P29371); assay: Receptor binding profile of VSN16R; conditions: 10µM VSN16R
# T3 construct: purchased Cerep; Chantest; DiscoveRx; Multispan; MDS Pharma Services
# mouse vas deferens = assay: Electrically‐evoked contraction of the mouse vas deferens; format: cell-based; conditions: Mus musculus, read-out: EC50, inhibition of electrically‐evoked contraction
# Procedure: Vasa deferentia were obtained from outbred MF‐1 mice and mounted vertically in a 4 mL organ bath at an initial tension of 0.5 g. The baths contained Mg^2+‐free Krebs solution (NaCl 118.2 mM, KCl 4.75 mM, KH2PO4 1.19 mM, NaHCO3 25.0 mM, glucose 11.0 mM and CaCl2·6H2O 2.54 mM), which was kept at 35–36°C and bubbled with 95% O2 and 5% CO2. […] Contractions were monitored by a computer using a data recording and analysis system as described previously (Ross et al., 2001). After placement in an organ bath, each tissue was subjected to a stimulation‐free period of 10 min and then stimulated for 10 min. Tissues were then subjected to alternate periods of stimulation (5 min) and rest (10 min) until consistent twitch amplitudes were obtained. This equilibration procedure was followed by a stimulation‐free period of 25 min. Tissues were then stimulated for 5 min after which the first agonist addition was made and stimulation continued until the end of the experiment.
# VIP1 = molecular target: T4, VIP1 (Homo sapiens, UniProt P32241); assay: Receptor binding profile of VSN16R; conditions: 10µM VSN16R
# T4 construct: purchased Cerep; Chantest; DiscoveRx; Multispan; MDS Pharma Services
# [2] = molecular target: T5, hCB2 Receptor (CHO-K1.CNR2) (Homo sapiens, UniProt P34972); assay: GTPγS Binding assay, CHO-K1.CNR2; format: biochemical; conditions: max. tested 10μM
# T5 construct: expressed in transfected cells; host or cells: CHO-K1
# BKCa channel = BKCa channel (Homo sapiens, UniProt Q12791); assay: Single‐channel inside‐out patch clamp, HCN‐2 neural cells; format: cell-based; conditions: inside‐out patches
# Procedure: The human EA.hy926 endothelial cells (ATCC, Manassas, USA) were grown in DMEM containing 10% FCS and 1% HAT (5 mM hypoxanthine, 20 μM aminopterin and 0.8 mM thymidine) and were maintained in an incubator at 37°C in 5% CO2 atmosphere (Bondarenko et al., 2013). Human HNC‐2 neuronal cells were obtained from ATCC. For experiments, cells were plated on glass coverslips. Single‐channel recordings were obtained from excised inside‐out membrane patches in symmetrical solutions using the patch‐clamp technique. All patch‐clamp experiments were performed at room temperature with the use of a water hydraulic micromanipulator (WR‐6, Narishige, Japan). […] The pipettes were filled with 140 mM KCl, 10 mM HEPES, 1 mM MgCl2, 5 mM EGTA and […] CaCl2 buffered to pH 7.2 by adding KOH. Cells were super‐perfused with a bath solution containing 140 mM NaCl, 5 mM KCl, 1.2 mM MgCl2, 10 mM HEPES, 10 mM glucose and 2.4 mM CaCl2. […] Single‐channel activity was expressed as NPo, where N represents the number of functional ion channels in the membrane patch and Po represents the open channel probability determined from idealized traces (Bondarenko et al., 2011). […] Data were analysed by ANOVA, and statistical significance was evaluated using Scheffés post hoc test of the Prism 5 software for Windows (GraphPad Software).
# healthy humans = assay: Phase I single dose: haematology and serum chemistry; format: in vivo, human; conditions: Day 2
# α1(non-selective) = assay: Receptor binding profile of VSN16R; parameters: species or system human; conditions: 10µM VSN16R
# H1 = molecular target: T6, H1 (Homo sapiens, UniProt P35367); assay: Receptor binding profile of VSN16R; conditions: 10µM VSN16R
# T6 construct: purchased Cerep; Chantest; DiscoveRx; Multispan; MDS Pharma Services
# Cl- channel = assay: Receptor binding profile of VSN16R; parameters: species or system human; conditions: 10µM VSN16R
# H2 = molecular target: T7, H2 (Homo sapiens, UniProt P25021); assay: Receptor binding profile of VSN16R; conditions: 10µM VSN16R
# T7 construct: purchased Cerep; Chantest; DiscoveRx; Multispan; MDS Pharma Services
# T7 sequence (P25021 whole entry): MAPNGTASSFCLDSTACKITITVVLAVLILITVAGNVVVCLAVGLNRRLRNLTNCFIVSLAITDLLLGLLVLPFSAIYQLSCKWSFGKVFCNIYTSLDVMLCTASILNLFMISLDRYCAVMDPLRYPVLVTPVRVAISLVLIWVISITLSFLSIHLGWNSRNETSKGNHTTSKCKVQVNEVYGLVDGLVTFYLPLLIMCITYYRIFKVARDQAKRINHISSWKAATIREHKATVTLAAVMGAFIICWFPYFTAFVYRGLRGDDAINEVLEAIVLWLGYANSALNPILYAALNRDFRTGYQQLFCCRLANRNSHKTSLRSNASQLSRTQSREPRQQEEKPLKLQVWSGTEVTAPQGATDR
# Sequence of BKCa channel (Q12791 whole entry): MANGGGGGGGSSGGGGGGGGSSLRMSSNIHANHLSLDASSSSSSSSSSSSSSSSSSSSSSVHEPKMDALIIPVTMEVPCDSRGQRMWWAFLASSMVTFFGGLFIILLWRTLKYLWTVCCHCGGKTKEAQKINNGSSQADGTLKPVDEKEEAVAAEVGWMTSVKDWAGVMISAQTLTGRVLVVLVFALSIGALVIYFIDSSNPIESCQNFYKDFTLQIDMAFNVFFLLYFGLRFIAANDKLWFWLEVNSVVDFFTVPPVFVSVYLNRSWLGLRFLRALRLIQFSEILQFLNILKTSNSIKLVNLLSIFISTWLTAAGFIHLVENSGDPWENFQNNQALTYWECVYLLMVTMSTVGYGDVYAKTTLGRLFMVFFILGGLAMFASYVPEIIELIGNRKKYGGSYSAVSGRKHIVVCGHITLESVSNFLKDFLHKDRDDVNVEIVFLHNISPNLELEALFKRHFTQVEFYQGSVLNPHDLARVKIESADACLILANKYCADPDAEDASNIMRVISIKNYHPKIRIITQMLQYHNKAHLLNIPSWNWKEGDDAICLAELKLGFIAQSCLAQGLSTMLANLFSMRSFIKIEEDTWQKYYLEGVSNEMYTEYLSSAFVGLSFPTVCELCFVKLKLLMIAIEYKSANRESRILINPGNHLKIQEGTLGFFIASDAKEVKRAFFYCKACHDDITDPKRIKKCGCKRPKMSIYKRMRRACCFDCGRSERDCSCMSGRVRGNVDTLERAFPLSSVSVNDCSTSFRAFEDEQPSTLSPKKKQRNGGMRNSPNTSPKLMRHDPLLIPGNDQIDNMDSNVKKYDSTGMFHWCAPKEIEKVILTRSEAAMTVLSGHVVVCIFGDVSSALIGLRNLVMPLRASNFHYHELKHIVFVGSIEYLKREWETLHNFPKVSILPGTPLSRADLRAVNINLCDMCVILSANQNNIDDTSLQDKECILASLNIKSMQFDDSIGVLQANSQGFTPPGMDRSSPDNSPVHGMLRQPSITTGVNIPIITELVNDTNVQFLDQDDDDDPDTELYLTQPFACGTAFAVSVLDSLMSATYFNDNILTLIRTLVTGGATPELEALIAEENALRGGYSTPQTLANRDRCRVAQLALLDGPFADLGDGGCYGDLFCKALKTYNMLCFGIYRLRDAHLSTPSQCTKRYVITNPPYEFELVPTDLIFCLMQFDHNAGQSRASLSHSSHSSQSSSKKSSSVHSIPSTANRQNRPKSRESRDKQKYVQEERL
# T2 sequence (P08588 whole entry): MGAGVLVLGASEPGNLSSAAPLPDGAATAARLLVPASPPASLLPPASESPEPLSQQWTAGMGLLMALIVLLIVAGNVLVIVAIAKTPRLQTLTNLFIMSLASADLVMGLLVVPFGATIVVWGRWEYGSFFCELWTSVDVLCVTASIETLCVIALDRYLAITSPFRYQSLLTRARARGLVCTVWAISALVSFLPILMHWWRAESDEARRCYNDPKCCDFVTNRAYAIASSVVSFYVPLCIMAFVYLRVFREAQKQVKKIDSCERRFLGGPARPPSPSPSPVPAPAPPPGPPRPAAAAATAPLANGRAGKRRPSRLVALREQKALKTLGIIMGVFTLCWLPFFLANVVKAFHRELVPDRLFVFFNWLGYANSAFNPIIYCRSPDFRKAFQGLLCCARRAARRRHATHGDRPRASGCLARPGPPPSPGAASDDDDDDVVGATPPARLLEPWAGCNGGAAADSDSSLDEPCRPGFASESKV
# T4 sequence (P32241 31-457): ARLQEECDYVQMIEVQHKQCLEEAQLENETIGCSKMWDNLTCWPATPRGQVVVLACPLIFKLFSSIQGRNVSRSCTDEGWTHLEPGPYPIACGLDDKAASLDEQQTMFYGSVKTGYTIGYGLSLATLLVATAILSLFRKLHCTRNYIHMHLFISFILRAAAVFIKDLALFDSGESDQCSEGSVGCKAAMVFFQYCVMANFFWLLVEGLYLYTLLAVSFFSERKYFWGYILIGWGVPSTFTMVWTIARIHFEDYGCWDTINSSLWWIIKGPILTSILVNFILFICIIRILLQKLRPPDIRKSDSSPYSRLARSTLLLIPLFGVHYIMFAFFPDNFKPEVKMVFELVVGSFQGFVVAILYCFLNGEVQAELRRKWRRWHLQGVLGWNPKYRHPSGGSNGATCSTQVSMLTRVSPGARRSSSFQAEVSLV
# T1 sequence (P25101 21-427): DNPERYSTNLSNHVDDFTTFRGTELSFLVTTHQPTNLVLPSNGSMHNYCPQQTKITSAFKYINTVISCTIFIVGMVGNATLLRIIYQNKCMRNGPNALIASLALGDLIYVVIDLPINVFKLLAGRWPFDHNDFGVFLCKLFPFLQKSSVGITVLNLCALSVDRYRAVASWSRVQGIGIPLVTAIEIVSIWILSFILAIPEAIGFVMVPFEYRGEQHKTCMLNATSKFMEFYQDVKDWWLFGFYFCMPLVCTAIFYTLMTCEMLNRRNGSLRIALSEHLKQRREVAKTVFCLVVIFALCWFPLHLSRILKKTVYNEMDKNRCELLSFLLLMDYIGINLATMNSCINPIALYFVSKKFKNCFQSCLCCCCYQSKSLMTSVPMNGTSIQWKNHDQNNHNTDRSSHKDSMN
# T6 sequence (P35367 whole entry): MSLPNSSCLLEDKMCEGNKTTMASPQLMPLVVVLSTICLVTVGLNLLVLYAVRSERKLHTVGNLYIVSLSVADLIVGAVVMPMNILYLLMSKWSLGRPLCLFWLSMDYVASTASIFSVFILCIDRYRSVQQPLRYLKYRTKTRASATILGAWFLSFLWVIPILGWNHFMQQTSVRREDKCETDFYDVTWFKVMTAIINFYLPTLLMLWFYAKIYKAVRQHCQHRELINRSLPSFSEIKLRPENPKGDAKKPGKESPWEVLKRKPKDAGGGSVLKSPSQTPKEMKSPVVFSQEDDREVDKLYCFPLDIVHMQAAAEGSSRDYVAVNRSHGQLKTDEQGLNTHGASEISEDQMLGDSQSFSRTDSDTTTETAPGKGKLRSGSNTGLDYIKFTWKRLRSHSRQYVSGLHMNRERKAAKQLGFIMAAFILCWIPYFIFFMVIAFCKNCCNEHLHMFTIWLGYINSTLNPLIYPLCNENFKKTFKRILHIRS
# T5 sequence (P34972 whole entry): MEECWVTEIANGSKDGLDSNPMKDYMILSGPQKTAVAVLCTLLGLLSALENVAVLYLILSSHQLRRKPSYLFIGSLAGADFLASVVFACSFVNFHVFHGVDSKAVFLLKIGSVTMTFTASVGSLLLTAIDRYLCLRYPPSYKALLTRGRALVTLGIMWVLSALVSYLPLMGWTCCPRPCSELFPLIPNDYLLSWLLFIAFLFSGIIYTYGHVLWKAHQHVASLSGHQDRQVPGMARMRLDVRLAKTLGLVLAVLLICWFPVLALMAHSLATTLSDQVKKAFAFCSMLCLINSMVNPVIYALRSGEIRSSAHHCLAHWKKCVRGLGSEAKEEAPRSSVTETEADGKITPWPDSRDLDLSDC
# T3 sequence (P29371 whole entry): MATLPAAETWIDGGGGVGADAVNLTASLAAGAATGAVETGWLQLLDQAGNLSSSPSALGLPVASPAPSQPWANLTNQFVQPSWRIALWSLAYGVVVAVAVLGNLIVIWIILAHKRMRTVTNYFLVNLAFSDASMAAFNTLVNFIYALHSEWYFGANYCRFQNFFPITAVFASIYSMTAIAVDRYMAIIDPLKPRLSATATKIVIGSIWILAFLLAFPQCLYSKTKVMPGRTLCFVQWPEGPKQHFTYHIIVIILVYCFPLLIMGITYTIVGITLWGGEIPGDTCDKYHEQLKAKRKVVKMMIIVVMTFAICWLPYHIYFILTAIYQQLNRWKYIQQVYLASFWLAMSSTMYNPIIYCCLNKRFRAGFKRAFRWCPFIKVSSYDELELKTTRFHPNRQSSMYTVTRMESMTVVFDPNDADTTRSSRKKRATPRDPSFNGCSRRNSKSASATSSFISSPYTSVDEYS
smiles,measurement,setting,value
C[C@H](CO)NC(=O)c1cccc(/C=C\CCCC(=O)N(C)C)c1 [VSN16R],solubility,Water solubility,> 30 mg/mL
same,Irwin test: Autonomic profile,rats; 120mg/kg p.o. in water,Unchanged
same,Irwin test: Behavioural Profile,rats; 120mg/kg p.o. in water,Unchanged
same,Irwin test: Neurological profile,rats; 120mg/kg p.o. in water,Unchanged
same,Adverse behavioural responses in Irwin tests,rats; 120 mg·kg^−1 p.o.,did not display any adverse behavioural responses
same,Activity,ETA,Negligible Activity
same,Activity,β1,Negligible Activity
same,Effect on primary porcine aorta endothelium,[1],do not respond; also recorded: had no effects
same,Activity,NK3,Negligible Activity
same,pEC50,mouse vas deferens,8.00
same,Activity,VIP1,Negligible Activity
same,Activity of VSN16R (Max. Tested),[2],No Activity
same,Single BKCa channel activity,BKCa channel,stimulated single BKCa channel activity
same,Albumin,healthy humans; 25mg,42 ± 1 g/L
same,Amylase,healthy humans; 25mg,65 ± 21 U/L
same,Basophils,healthy humans; 25mg,0.0 ± 0.0 109 cells/L
same,Bilirubin,healthy humans; 25mg,14.9 ± 6.1 µmol/L
same,Calcium,healthy humans; 25mg,2.40 ± 0.08 mmol/L
same,Chloride,healthy humans; 25mg,104 ± 2 mmol/L
same,Cholesterol,healthy humans; 25mg,4.79 ± 0.77 mmol/L
same,Creatinine,healthy humans; 25mg,84 ± 10 µmol/L
same,Eosinophils,healthy humans; 25mg,0.2 ± 0.1 109 cells/L
same,Globulin,healthy humans; 25mg,28.8 ± 5.6 g/L
same,Glucose,healthy humans; 25mg,4.78 ± 0.58 mmol/L
same,Haemoglobin,healthy humans; 25mg,9.4 ± 0.5 mmol/L
same,Hematocrit,healthy humans; 25mg,0.425 ± 0.021
same,Lymphocytes,healthy humans; 25mg,1.9 ± 0.6 109 cells/L
same,Magnesium,healthy humans; 25mg,0.8 ± 0.0 mmol/L
same,Monocytes,healthy humans; 25mg,0.5 ± 0.1 109 cells/L
same,Neutrophils,healthy humans; 25mg,2.5 ± 0.6 109 cells/L
same,Phosphate,healthy humans; 25mg,1.20 ± 0.10 mmol/L
same,Potassium,healthy humans; 25mg,4.27 ± 0.18 mmol/L
same,Red Blood Cells,healthy humans; 25mg,4.94 ± 0.30 1012 cells/L
same,Sodium,healthy humans; 25mg,141 ± 2 mmol/L
same,Triglycerides,healthy humans; 25mg,1.26 ± 0.25 mmol/L
same,Urea,healthy humans; 25mg,4.4 ± 0.9 mmol/L
same,White Blood Cells,healthy humans; 25mg,5.2 ± 1.2 109 cells/L
same,Albumin,healthy humans; 800mg,42 ± 1 g/L
same,Amylase,healthy humans; 800mg,50 ± 12 U/L
same,Basophils,healthy humans; 800mg,0.0 ± 0.0 109 cells/L
same,Bilirubin,healthy humans; 800mg,11.4 ± 3.0 µmol/L
same,Calcium,healthy humans; 800mg,2.35 ± 0.04 mmol/L
same,Chloride,healthy humans; 800mg,104 ± 1 mmol/L
same,Cholesterol,healthy humans; 800mg,4.68 ± 0.78 mmol/L
same,Creatinine,healthy humans; 800mg,84 ± 10 µmol/L
same,Eosinophils,healthy humans; 800mg,0.3 ± 0.1 109 cells/L
same,Globulin,healthy humans; 800mg,28.9 ± 1.2 g/L
same,Glucose,healthy humans; 800mg,5.51 ± 0.92 mmol/L
same,Haemoglobin,healthy humans; 800mg,9.3 ± 0.5 mmol/L
same,Hematocrit,healthy humans; 800mg,0.421 ± 0.016
same,Lymphocytes,healthy humans; 800mg,1.8 ± 0.6 109 cells/L
same,Magnesium,healthy humans; 800mg,0.8 ± 0.1 mmol/L
same,Monocytes,healthy humans; 800mg,0.5 ± 0.1 109 cells/L
same,Neutrophils,healthy humans; 800mg,2.7 ± 1.2 109 cells/L
same,Phosphate,healthy humans; 800mg,1.02 ± 0.10 mmol/L
same,Potassium,healthy humans; 800mg,4.19 ± 0.25 mmol/L
same,Red Blood Cells,healthy humans; 800mg,4.87 ± 0.30 1012 cells/L
same,Sodium,healthy humans; 800mg,142 ± 3 mmol/L
same,Triglycerides,healthy humans; 800mg,1.55 ± 0.61 mmol/L
same,Urea,healthy humans; 800mg,4.7 ± 0.4 mmol/L
same,White Blood Cells,healthy humans; 800mg,5.0 ± 1.1 109 cells/L
same,Activity,α1(non-selective),Negligible Activity
same,Activity,H1,Negligible Activity
same,Activity,Cl- channel,Negligible Activity
same,Activity,H2,Negligible Activity
